For the assay, the target named is T1, human GPR84 receptor (Homo sapiens, UniProt Q9NQS5).
T1 construct: host or cells: HEK293, transiently transfected
The assay can be described thus: Gαi biosensor BRET assay (GPR84 antagonism vs agonist ZQ-16). Type of assay: cell-based. The conditions noted are these: HEK293 cells, 200 nmol/L agonist ZQ-16; for IC50: Gαi biosensor BRET assay; for inhibition at 2 µM: tested at 2 μM (concentration code A); for inhibition at 10 µM: tested at 10 μM (concentration code D). The text has this:
Background—The following assays can be used for determination of GPR84 activation in living HEK293 cells. The Gai BRET biosensor (Gagnon et al., 2018; Gales et al., 2006. Nat Struct Mol Biol. 13, 778-86; Saulieres et al., 2012. Nat Chem Biol. 8, 622-30) allows to directly monitor GPR84-mediated activation of Gai. The Gai biosensor consists of a Rluc8-tagged Gai2 subunit, a GFP10-tagged Gy2 subunit, and an untagged GB1. Agonist stimulation and GPR84 activation triggers a physical separation between the RLuc8-Gai donor and the GFP10-Gy2 acceptor, resulting in a decrease in BRET signal whose amplitude is correlated to ligand efficacy (Gales et al., 2006). Moreover, signaling functions of GPCRs are tightly regulated by endocytosis, the targeting of receptors to endosomes and their sorting to lysosomes or recycling to the plasma membrane. The early endosomes (EEs) trafficking assay (Namkung et al., 2016. Nat Commun. 7, 12178) uses Rluc8-tagged GPR84 and Renilla GFP (rGFP) attached to the FYVE domain from human endofin/zinc finger FYVE domain-containing protein 16, which binds phosphatidylinositol 3-phosphate in EEs. Agonist stimulation of GPR84-Rluc8 leads to trafficking of the receptor to EEs, and ensuing increase of the donor concentration relative to the rGFP-FYVE acceptor anchored in the same cellular compartment, and thus results in an increase in BRET signal.
Plasmids—The cDNA clones for human GPR84 receptor, human Gai2, GB1, and Gy2 were obtained from the cDNA Resource Center (www.cdna.org). GFP10 (F64L, S147P, S202F and H231L variant of Aequorea victoria Green Fluorescent Protein) gBlocks gene fragments (Integrated DNA Technologies, IA) and linker were inserted in frame at the N-terminus of human Gy2. Rluc8 (A55T, C124A, S130A, K136R, A143M, M185V, M253L, and S287L variant of the Renilla reniformis luciferase) gBlocks gene fragment was inserted with linkers in frame in between residues 91 and 92 of Gai2 or at the C-terminus of GPR84. The FYVE domain from human endofin (residues Q739 to K806) attached in frame at the C terminus of a humanized Renilla GFP (rGFP), were synthesized as gBlocks gene fragments.
Bioluminescence Resonance Energy Transfer (BRET) Measurement-HEK293 cells were transfected with GPR84-Rluc8 and rGFP-FYVE for the EEs trafficking biosensor or with GPR84, Gai2-Rluc8, GFP10-Gy2, and GB1 for the Ga; biosensor. The following day, transiently transfected cells were seeded in 96-well white clear bottom microplates coated with poly-D-lysine and left in culture for 24 hours. Cells were washed once with Tyrode's buffer (140 mmol/L NaCl, 1 mmol/L CaCl2), 2.7 mmol/L KCl, 0.49 mmol/L MgCl2, 0.37 mmol/L NaH2PO4, 5.6 mmol/L glucose, 12 mmol/L NaHCO3, and 25 mmol/L HEPES, pH 7.5) before performing assays in Tyrode's buffer. Test compounds were incubated with cells for 5 (Gai) or 15 (EEs) minutes at 37° C. before addition of 200 nmol/L of the GPR84 agonist ZQ-16 (2-(Hexylthio)-6-hydroxy-4 (3H)-pyrimidinone) for 5 minutes at room temperature (Gai) or 30 minutes at 37° C. (EEs). The Rluc8 substrate coelenterazine 400A (Prolume, Lakeside, A Z) was added at a final concentration of 5 μmol/L and BRET readings were collected using an Infinite M1000 microplate reader (Tecan, Morrisville, N C). BRET2 readings between Rluc8 and GFP10 or rGFP were collected by sequential integration of the signals detected in the 370 to 450 nm (Rluc8) and 510 to 540 nm (GFP10, rGFP) windows. The BRET signal was calculated as the ratio of light emitted by acceptor (GFP10, rGFP) over the light emitted by donor (Rluc8). The values were corrected to net BRET by subtracting the background BRET signal obtained in cells transfected with Rluc8 constructs alone. Ligand-promoted net BRET values were calculated by subtracting vehicle-induced net BRET from ligand-induced net BRET.
For orientation: In BRET a luciferase serves as donor, and the signal depends on an acceptor being close.

T1 sequence (Q9NQS5 whole entry): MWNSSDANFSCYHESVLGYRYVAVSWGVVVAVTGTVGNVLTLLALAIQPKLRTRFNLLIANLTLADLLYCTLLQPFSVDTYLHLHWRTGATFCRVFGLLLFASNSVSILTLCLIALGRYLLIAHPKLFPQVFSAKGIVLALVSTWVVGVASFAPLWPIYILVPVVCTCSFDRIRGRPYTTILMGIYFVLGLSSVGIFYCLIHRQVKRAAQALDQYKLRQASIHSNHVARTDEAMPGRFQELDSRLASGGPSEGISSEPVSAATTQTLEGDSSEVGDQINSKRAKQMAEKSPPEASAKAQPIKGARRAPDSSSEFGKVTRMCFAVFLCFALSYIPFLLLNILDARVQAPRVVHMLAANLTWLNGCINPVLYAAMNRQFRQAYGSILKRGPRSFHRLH

Turning to `Cc1cc(OCC(=O)N(C)C)cc(=O)n1[C@H](C)c1ccc(C#CC2CC2(F)F)c(F)c1` (single isomer, unassigned) [Compound I-83], the concentration for half-maximal inhibition (IC50) is at most 300 nM and the inhibition at 2 µM is over 75%. On to `Cc1cc(OCC(=O)N(C)C)cc(=O)n1[C@H](C)c1ccc(C#CC2CC2(F)F)c(F)c1` (single isomer, unassigned) [Compound I-84], for which the IC50 is at most 300 nM. The molecule `Cc1cc(OCC(=O)N2CCC2)cc(=O)n1[C@H](C)c1ccc(C#CC2CC2)cc1` [Compound I-1, (R)-4-(2-(azetidin-1-yl)-2-oxoethoxy)-1-(1-(4-(cyclopropylethynyl)phenyl)ethyl)-6-methylpyridin-2 (1H)-one] returned an IC50 of at most 300 nM and an inhibition at 2 µM of over 75%. For `Cc1cc(OCC(=O)N2CCCC2)cc(=O)n1[C@H](C)c1ccc(C#CC2CC2)cc1` [Compound I-2] the same measures were at most 300 nM and over 75%. Molecule `Cc1cc(OCC(=O)N2CCOCC2)cc(=O)n1[C@H](C)c1ccc(C#CC2CC2)cc1` [Compound I-3] displayed an IC50 of at most 300 nM and an inhibition at 2 µM of over 75%. In turn, `COc1cncnc1COc1cc(C)n([C@H](C)c2ccc(C#CC3CC3)cc2)c(=O)c1` [Compound I-4] had an inhibition at 10 µM of over 75%. With `CCCCc1ccc(C(C)n2c(C)cc(OCc3ncccn3)cc2=O)cc1` (stereo not drawn) [Compound I-5, 1-(1-(4-butylphenyl)ethyl)-6-methyl-4-(pyrimidin-2-ylmethoxy)pyridin-2 (1H)-one], the inhibition at 10 µM is under 25%.

For `[2H]C([2H])([2H])N(C(=O)COc1cc(C)n([C@H](C)c2ccc(C#CC3CC3)cc2)c(=O)c1)C([2H])([2H])[2H]` [Compound I-6], the IC50 was at most 300 nM and the inhibition at 2 µM was over 75%. `Cc1cc(OCC(=O)N2CC(F)(F)C2)cc(=O)n1[C@H](C)c1ccc(C#CC2CC2)cc1` [Compound I-7]: the half-inhibitory concentration (IC50) was in the range of 300 to 1000 nM and the inhibition at 10 µM was over 75%. The molecule `Cc1cc(OCC(=O)N2CCC(F)(F)CC2)cc(=O)n1[C@H](C)c1ccc(C#CC2CC2)cc1` [Compound I-8] registered an inhibition at 10 µM of over 75%. In turn, `Cc1cc(OCC2COCCO2)cc(=O)n1[C@H](C)c1ccc(NC(=O)c2cnccn2)c(F)c1` (stereo partly drawn) [Compound I-9, N-(4-((1R)-1-(4-((1,4-dioxan-2-yl)methoxy)-6-methyl-2-oxopyridin-1 (2H)-yl)ethyl)-2-fluorophenyl) pyrazine-2-carboxamide] came in with an inhibition at 10 µM of under 25%.

As for `Cc1cc(OCc2ncccn2)cc(=O)n1[C@H](C)c1ccc(-c2cnc(C3CC3)cn2)c(F)c1` [Compound I-10], the inhibition at 10 µM was under 25%. The molecule `Cc1cc(OCc2ncc(NS(C)(=O)=O)cn2)cc(=O)n1[C@H](C)c1ccc(C#CC2CC2)cc1` [Compound I-11] registered an IC50 of at most 300 nM and an inhibition at 2 µM of over 75%. In turn, `Cc1noc(COc2cc(C)n([C@H](C)c3ccc(C#CC4CC4)cc3)c(=O)c2)n1` [Compound I-12] came in with an inhibition at 10 µM of over 75%. The molecule `Cc1cc(OCc2cnc(C3CC3)cn2)cc(=O)n1C(C)c1ccc(OCC2CCCCO2)c(F)c1` (stereo not drawn) [Compound I-13] displayed an inhibition at 10 µM of under 25%.

`Cc1cc(OCC(=O)N(C)C)cc(=O)n1[C@H](C)c1ccc(C#CC2CC2)c(F)c1` [Compound I-14] displayed an IC50 of at most 300 nM and an inhibition at 2 µM of over 75%. For the molecule `Cc1cc(OCc2ncncc2Cl)cc(=O)n1[C@H](C)c1ccc(C#CC2CC2)cc1` [Compound I-15], the IC50 was at most 300 nM and the inhibition at 10 µM was over 75%. The molecule `Cc1cc(OCC2COCCO2)cc(=O)n1C(C)c1ccc(OCC2CCN(C(=O)C3CC3)CC2)c(F)c1` (stereo not drawn) [Compound I-16] yielded an inhibition at 10 µM of under 25%. As for `Cc1nnc(COc2cc(C)n([C@H](C)c3ccc(C#CC4CC4)c(F)c3)c(=O)c2)o1` [Compound I-17], the IC50 is at most 300 nM and the inhibition at 2 µM is over 75%. As for `Cc1noc(COc2cc(C)n([C@H](C)c3ccc(C#CC4CC4)c(F)c3)c(=O)c2)n1` [Compound I-18], the inhibition at 10 µM is over 75%. In the case of `Cc1cc(OCC2(N(C)C)COC2)cc(=O)n1[C@H](C)c1ccc(C#CC2CC2)c(F)c1` [Compound I-19], the inhibition at 10 µM is 50 to 75%. With `CCCC#Cc1ccc([C@@H](C)n2c(C)cc(OCC(=O)N(C)C)cc2=O)cc1` [Compound I-20], the IC50 was at most 300 nM and the inhibition at 10 µM is over 75%.

`Cc1cc(OCC(=O)O)cc(=O)n1[C@H](C)c1ccc(C#CC2CC2)cc1` [Compound I-21] registered an inhibition at 10 µM of 50 to 75%. The same measure, in the same setting: under `COC(=O)COc1cc(C)n([C@H](C)c2ccc(C#CC3CC3)cc2)c(=O)c1` [Compound I-22] stands over 75%. For `Cc1cc(OCC(=O)N2CCC2)cc(=O)n1[C@H](C)c1ccc(C#CC2CC2)c(F)c1` [Compound I-23], the IC50 is at most 300 nM and the inhibition at 2 µM was over 75%. Regarding `Cc1cc(OCC(=O)N2CC(F)(F)C2)cc(=O)n1[C@H](C)c1ccc(C#CC2CC2)c(F)c1` [Compound I-24], the IC50 was in the range of 300 to 1000 nM and the inhibition at 10 µM was over 75%.

In turn, `Cc1cc(OCC(=O)N2CCCC2)cc(=O)n1[C@H](C)c1ccc(C#CC2CC2)c(F)c1` [Compound I-25] showed an IC50 of at most 300 nM and an inhibition at 2 µM of over 75%.

In turn, `Cc1cc(OCC(=O)N2CCC(F)(F)CC2)cc(=O)n1[C@H](C)c1ccc(C#CC2CC2)c(F)c1` [Compound I-26] displayed an inhibition at 10 µM of over 75%.

The molecule `Cc1cc(OCC(=O)N2CCOCC2)cc(=O)n1[C@H](C)c1ccc(C#CC2CC2)c(F)c1` [Compound I-27] had an inhibition at 10 µM of over 75%.

`CCC#Cc1ccc([C@@H](C)n2c(C)cc(OCC(=O)N(C)C)cc2=O)cc1` [Compound I-28] had an IC50 of at most 300 nM and an inhibition at 10 µM of over 75%. The molecule `Cc1cc(OCC(=O)N(C)C)cc(=O)n1[C@H](C)c1ccc(C#CC2CC2)c(Cl)c1` [Compound I-29] yielded an IC50 of at most 300 nM and an inhibition at 2 µM of over 75%. In turn, `Cc1cc(OCC2(N(C)C)CC2)cc(=O)n1[C@H](C)c1ccc(C#CC2CC2)cc1` [Compound I-30] yielded an inhibition at 10 µM of 50 to 75%. On the same count and under the same terms, under `Cc1cc(OCC2(N(C)C)CC2)cc(=O)n1[C@H](C)c1ccc(C#CC2CC2)c(F)c1` [Compound I-31] stands 25 to 50%. With `Cc1cc(OCC(=O)N(C)C)cc(=O)n1[C@H](C)c1ccc(C#CCC2CC2)cc1` [Compound I-32], the IC50 was at most 300 nM and the inhibition at 2 µM was over 75%. `Cc1cc(OCC(=O)N(C)C)cc(=O)n1[C@H](C)c1ccc(C#CC2CC2)c(C2CC2)c1` [Compound I-33] returned an inhibition at 10 µM of over 75%. `Cc1cc(OCC(=O)N(C)C)cc(=O)n1[C@H](C)c1ccc(C#CC2CC2)c(C#N)c1` [Compound I-34] showed an IC50 of at most 300 nM and an inhibition at 2 µM of over 75%.

On to `Cc1cc(OCC(=O)N(C)C)cc(=O)n1[C@H](C)c1ccc(C#CC2CC2)c(Br)c1` [Compound I-35], for which the half-inhibitory concentration (IC50) is at most 300 nM and the inhibition at 2 µM was over 75%.

In the case of `Cc1cc(OCC2(N(C)C)COC2)cc(=O)n1[C@H](C)c1ccc(C#CC2CC2)cc1` [Compound I-36], the inhibition at 10 µM is over 75%.

Broadly, the IC50 is the concentration that gives 50% inhibition. By inhibition is commonly meant the relative decrease from the control value, in per cent. High values mean a strong effect, low ones a weak effect.

These data come from patent publication US20260055117A1, “SUBSTITUTED PYRIDONE GPR84 ANTAGONISTS AND USES THEREOF” (Liminal BioSciences Limited, priority 2022, published 2026).
